Assay results from the Biogen ADME set (Fang et al. 2023).
In brackets after ≈: the same amount, converted by molar mass.

Conditions: for aqueous solubility: pH 6.8

Compound | MDR1-MDCK efflux ratio | intrinsic clearance, human liver microsomes [mL/min/kg] | intrinsic clearance, rat liver microsomes [mL/min/kg] | aqueous solubility [µg/mL] | fraction unbound, human plasma | fraction unbound, rat plasma
CCCOc1ccccc1C(=O)N1CC(Oc2cccc(OC)c2)C1 | 0.72 | 92.8 | 1360 | 42.3 (≈ 124 µM) | – | –
O=C(c1ccc(O)cc1)N1CCN(c2ncnc3c2CCC3)CC1 | 43.2 | 12.1 | 178 | – | – | –
CC(=O)Nc1cc(CCC2CCNCC2)ccn1 | 2.42 | ≤ 4.74 | ≤ 10.7 | 51 (≈ 206 µM) | – | –
Oc1ccccc1NCc1ccccn1 | – | 24.9 | 600 | 44.1 (≈ 220 µM) | – | –
CCCc1ncncc1C(=O)NCc1nncn1CCC | 14.7 | ≤ 4.74 | 38.8 | – | – | –
CCc1nnc(N2CCCO2)c(C#N)c1CC | 0.746 | 16.6 | 147 | – | – | –
Cc1ccccc1N(CC(=O)N(C)C)S(C)(=O)=O | 2 | 6.35 | 553 | 46.7 (≈ 173 µM) | – | –
Cc1cc2occ(CC(=O)NC3CCN(C)CC3)c2cc1C(C)C | 6.32 | 13.9 | 407 | 34.4 (≈ 105 µM) | – | –
CCN1CCc2ncnc(N(C)Cc3ccc4c(c3)OCCO4)c2C1 | 0.787 | 114 | 448 | 38.9 (≈ 114 µM) | – | –
Cc1ccnc(-n2nccc2NC(=O)NC2(C)CCC2)c1 | 0.579 | 72.8 | 931 | – | – | –
N#CCN1CCCN(Cc2ccc(C#N)cc2)CC1 | – | 65.5 | 267 | 37.8 (≈ 149 µM) | – | –
Cc1cc(Nc2cc(N3CCN(C)CC3)nc(/C=C/c3ccccc3)n2)n[nH]1 | – | – | – | 0.2 (≈ 0.533 µM) | – | –
CC(C)c1nccn1Cc1nc(-c2cccs2)no1 | – | 13.6 | 1930 | – | – | –
Cc1cc(C(F)(F)F)nc(CCNC(=O)N(C)Cc2ccncc2C)n1 | 52 | 198 | 734 | – | – | –
CCCc1cc(CNC(=O)N2C[C@H]3C[C@@H](C2)c2cccc(=O)n2C3)on1 | 16.4 | 16.6 | 90.4 | – | – | –
CN1CCC(CNc2ccc3ncc(-c4cccc(OC(F)(F)F)c4)n3n2)CC1 | – | 90.9 | 365 | – | – | –

Compound | MDR1-MDCK efflux ratio | intrinsic clearance, human liver microsomes [mL/min/kg] | intrinsic clearance, rat liver microsomes [mL/min/kg] | aqueous solubility [µg/mL] | fraction unbound, human plasma | fraction unbound, rat plasma
CN1CCc2nc(NC(=O)c3cncn3-c3ccccc3)sc2C1 | 20.3 | 5.11 | 63.6 | 43.4 (≈ 128 µM) | – | –
CCCc1cnc(C)nc1N(C)CCC(C)(C)O | – | 8.14 | 155 | – | – | –
Cc1nc2cc(NC(=O)CCc3c(C)nc4c(c(C)nn4C)c3C)ccc2o1 | 13.5 | 24.2 | 1110 | 9.3 (≈ 24.6 µM) | – | –
CC(C)(Oc1ccc(-c2cnc(N)c(-c3ccc(Cl)cc3)c2)cc1)C(=O)O | – | – | – | 45.4 (≈ 119 µM) | 0.0007 | 0.0004
Cc1ccc(S(=O)(=O)Nc2ccc3c(c2)c(C(=O)C(F)(F)F)cn3CC(=O)N[C@@H](CC(C)C)C(=O)O)cc1 | 20 | – | – | 80.4 (≈ 145 µM) | – | –
Cn1ncc2c(NOCc3ccccc3)ncnc21 | – | 15.2 | 49.6 | – | – | –
O=C(CCCCCCC(=O)Nc1ccccc1)NO | – | ≤ 4.74 | 27.4 | – | – | –
NC(=O)CN1CCC(Oc2cccc(F)c2)CC1 | 0.543 | ≤ 4.74 | 71.6 | 60.8 (≈ 241 µM) | – | –
Cn1cnnc1CCn1ccnc1-c1cc2ccccc2s1 | 134 | ≤ 4.74 | 25.3 | 33 (≈ 106 µM) | – | –
Cc1noc(COc2cccnc2C)n1 | 0.706 | ≤ 4.74 | 23.6 | – | – | –
CCn1cc(C(=O)O)c(=O)c2c(N)c(F)c(NC3CCCCC3)cc21 | – | 8.72 | 112 | – | 0.0268 | 0.0267
Cn1nccc1C(=O)NCCc1cc2nc(-c3cccs3)ccn2n1 | – | 67.5 | 565 | – | – | –
O=C(NCc1ccc(F)cc1)C1CCN(C(=O)/C=C/c2ccc(F)cc2)CC1 | 6.14 | ≤ 4.74 | 106 | 3.03 (≈ 7.88 µM) | – | –
Cc1nc(N2CCN(C)CC2)nc(C)c1NC(=O)C1CCCCC1 | 3.54 | ≤ 4.74 | ≤ 10.7 | 60 (≈ 181 µM) | – | –
CSc1ccccc1S(=O)(=O)NC1CCC(CN(C)C)CC1 (stereo unspecified) | 8.91 | ≤ 4.74 | 440 | – | – | –
